The values below come from patent US20090018134A1, “Compounds - 945” (AstraZeneca AB, priority 2007, published 2009).

In this assay the target is T1, mTOR (Homo sapiens, UniProt P42345).
T1 construct: FLAG; made in house
T1 sequence (P42345 1362-2549): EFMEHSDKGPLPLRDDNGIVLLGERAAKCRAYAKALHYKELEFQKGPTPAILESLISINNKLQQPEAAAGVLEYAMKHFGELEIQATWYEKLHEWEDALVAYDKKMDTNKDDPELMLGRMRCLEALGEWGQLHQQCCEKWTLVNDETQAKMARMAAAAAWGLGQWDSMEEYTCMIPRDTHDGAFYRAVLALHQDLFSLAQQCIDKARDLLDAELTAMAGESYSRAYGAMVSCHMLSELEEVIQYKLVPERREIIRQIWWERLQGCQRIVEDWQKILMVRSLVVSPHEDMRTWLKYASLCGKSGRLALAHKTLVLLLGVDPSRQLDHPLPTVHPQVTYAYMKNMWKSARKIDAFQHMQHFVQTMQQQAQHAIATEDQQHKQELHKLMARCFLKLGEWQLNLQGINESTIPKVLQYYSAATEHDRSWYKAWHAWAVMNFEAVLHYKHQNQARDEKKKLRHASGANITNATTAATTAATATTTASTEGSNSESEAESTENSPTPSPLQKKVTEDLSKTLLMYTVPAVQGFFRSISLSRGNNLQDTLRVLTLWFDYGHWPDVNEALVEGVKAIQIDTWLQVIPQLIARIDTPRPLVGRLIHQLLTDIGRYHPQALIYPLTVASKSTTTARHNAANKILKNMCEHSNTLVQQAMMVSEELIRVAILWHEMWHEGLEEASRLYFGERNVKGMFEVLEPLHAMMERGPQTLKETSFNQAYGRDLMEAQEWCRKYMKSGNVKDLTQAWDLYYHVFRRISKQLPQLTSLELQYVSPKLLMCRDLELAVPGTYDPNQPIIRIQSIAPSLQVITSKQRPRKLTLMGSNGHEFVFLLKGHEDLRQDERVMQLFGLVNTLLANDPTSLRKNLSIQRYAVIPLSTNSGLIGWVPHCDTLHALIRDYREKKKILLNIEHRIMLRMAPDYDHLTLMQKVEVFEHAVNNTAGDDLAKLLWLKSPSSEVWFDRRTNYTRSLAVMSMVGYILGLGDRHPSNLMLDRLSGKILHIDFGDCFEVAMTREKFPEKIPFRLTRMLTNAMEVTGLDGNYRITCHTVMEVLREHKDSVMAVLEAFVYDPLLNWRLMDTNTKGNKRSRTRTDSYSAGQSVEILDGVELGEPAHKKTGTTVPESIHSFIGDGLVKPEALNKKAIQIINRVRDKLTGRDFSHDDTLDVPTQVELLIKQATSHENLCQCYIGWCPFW
As to the kind of experiment: In Vitro mTOR Kinase Assay (Echo), Test (a)(ii). Type of assay: biochemical. The note with it: table of enzyme assay Test (a)(ii); read-out: Test (a)(ii) IC50. An outline of the steps: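 FLAG-tagged truncated mTOR (residues 1362-2549), expressed in HEK293 and purified via the FLAG tag, phosphorylated a biotinylated peptide over 2 hours at room temperature. EDTA stopped the reaction. Phospho-T389 was detected overnight by AlphaScreen using the p70 S6K T389 antibody with Protein A/streptavidin beads; IC50 reported.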
For the molecule `C[C@H]1COCCN1c1cc(C2(S(=O)(=O)c3ccc(F)cc3)CC2)nc(-c2ccc(NC(=O)NCCO)nc2)n1` [Example 14l, 1-[5-[4-[1-(4-fluorophenyl)sulfonylcyclopro-pyl]-6-[(3S)-3-methylmorpholin-4-yl]pyrimidin-2-yl]pyridin-2-yl]-3-(2-hydroxyethyl)urea], the IC50 (commonly the concentration needed to halve the response being measured) came to 13.7 nM.
Turning to `C[C@H]1COCCN1c1cc(C2(S(=O)(=O)c3ccc(F)cc3)CC2)nc(-c2ccc(NC(=O)Nc3cnn(C)c3)nc2)n1` [Example 14m, 1-[5-[4-[1-(4-fluorophenyl)sulfonylcyclopro-pyl]-6-[(3S)-3-methylmorpholin-4-yl]pyrimidin-2-yl]pyridin-2-yl]-3-(1-methylpyrazol-4-yl)urea], the IC50 is 14.3 nM.
Consider `C[C@H]1COCCN1c1cc(C2(S(C)(=O)=O)CCCC2)nc(-c2ccc(NC(=O)NC3CC3)nc2)n1` [Example 14n, 3-cyclopropyl-1-[5-[4-[(3S)-3-methylmorpholin-4-yl]-6-(1-methylsulfonylcyclopentyl)pyri-midin-2-yl]pyridin-2-yl]urea], for which the half-maximal inhibitory concentration (IC50) is 36.3 nM.
In the case of `CNC(=O)Nc1ccc(-c2nc(N3CCOC[C@@H]3C)cc(C3(S(C)(=O)=O)CCCC3)n2)cn1` [Example 14o, 3-methyl-1-[5-[4-[(3S)-3-methylmorpholin-4-yl]-6-(1-methylsulfonylcyclopentyl)pyri-midin-2-yl]pyridin-2-yl]urea], the IC50 came out at 21.7 nM.
For `C[C@H]1COCCN1c1cc(C2(S(C)(=O)=O)CCCC2)nc(-c2ccc(NC(=O)NCCN(C)C)nc2)n1` [Example 14p, 3-(2-dimethylaminoethyl)-1-[5-[4-[(3S)-3-methylmorpholin-4-yl]-6-(1-methylsulfonylcyclopentyl)pyri-midin-2-yl]pyridin-2-yl]urea], the concentration for half-maximal inhibition (IC50) was 537 nM.
For the molecule `C[C@H]1COCCN1c1cc(C2(S(C)(=O)=O)CCCC2)nc(-c2ccc(NC(=O)NCCO)nc2)n1` [Example 14q, 3-(2-hydroxyethyl)-1-[5-[4-[(3S)-3-methylmorpholin-4-yl]-6-(1-methylsulfonylcyclopentyl)pyri-midin-2-yl]pyridin-2-yl]urea], the half-maximal inhibitory concentration (IC50) is 26.5 nM.
Consider `C[C@H]1COCCN1c1cc(C2(S(C)(=O)=O)CCCC2)nc(-c2ccc(NC(=O)Nc3cnn(C)c3)nc2)n1` [Example 14r, 1-[5-[4-[(3S)-3-methylmorpholin-4-yl]-6-(1-methylsulfonylcyclopentyl)pyri-midin-2-yl]pyridin-2-yl]-3-(1-methylpyrazol-4-yl)urea], for which the 50% inhibitory concentration (IC50) came to 10.3 nM.
`C[C@H]1COCCN1c1cc(C2(S(C)(=O)=O)CCCC2)nc(-c2cnc(NC(=O)NC3CC3)nc2)n1` [Example 14s, 3-cyclopropyl-1-[5-[4-[(3S)-3-methylmorpholin-4-yl]-6-(1-methylsulfonylcyclopentyl)pyri-midin-2-yl]pyrimidin-2-yl]urea]: the IC50 was 122 nM.
For `CNC(=O)Nc1ncc(-c2nc(N3CCOC[C@@H]3C)cc(C3(S(C)(=O)=O)CCCC3)n2)cn1` [Example 14t, 3-methyl-1-[5-[4-[(3S)-3-methylmorpholin-4-yl]-6-(1-methylsulfonylcyclopentyl)pyri-midin-2-yl]pyrimidin-2-yl]urea], the concentration for half-maximal inhibition (IC50) was 197 nM.
With `C[C@H]1COCCN1c1cc(C2(S(C)(=O)=O)CCCC2)nc(-c2cnc(NC(=O)NCCO)nc2)n1` [Example 14u, 3-(2-hydroxyethyl)-1-[5-[4-[(3S)-3-methylmorpholin-4-yl]-6-(1-methylsulfonylcyclopentyl)pyri-midin-2-yl]pyrimidin-2-yl]urea], the IC50 was 123 nM.
Consider `C[C@H]1COCCN1c1cc(C2(S(C)(=O)=O)CCCC2)nc(-c2cnc(NC(=O)Nc3cnn(C)c3)nc2)n1` [Example 14v, 1-[5-[4-[(3S)-3-methylmorpholin-4-yl]-6-(1-methylsulfonylcyclopentyl)pyri-midin-2-yl]pyrimidin-2-yl]-3-(1-methylpyrazol-4-yl)urea], for which the IC50 is 82.3 nM.
As for `C[C@H]1COCCN1c1cc(C2(S(=O)(=O)C3CC3)CC2)nc(-c2cnc(NC(=O)NC3CC3)nc2)n1` [Example 14w, 3-cyclopropyl-1-[5-[4-(1-cyclopropylsulfonylcyclopropyl)-6-[(3S)-3-methylmorpholin-4-yl]pyrimidin-2-yl]pyrimidin-2-yl]urea], the IC50 is 208 nM.
For the molecule `CNC(=O)Nc1ncc(-c2nc(N3CCOC[C@@H]3C)cc(C3(S(=O)(=O)C4CC4)CC3)n2)cn1` [Example 14x, 1-[5-[4-(1-cyclopropylsulfonylcyclopropyl)-6-[(3S)-3-methylmorpholin-4-yl]pyrimidin-2-yl]pyrimidin-2-yl]-3-methylurea], the IC50 amounted to 630 nM.
On to `C[C@H]1COCCN1c1cc(C2(S(=O)(=O)C3CC3)CC2)nc(-c2cnc(NC(=O)NCCO)nc2)n1` [Example 14y, 1-[5-[4-(1-cyclopropylsulfonylcyclopropyl)-6-[(3S)-3-methylmorpholin-4-yl]pyrimidin-2-yl]pyrimidin-2-yl]-3-(2-hydroxyethyl)urea], for which the IC50 worked out at 152 nM.
Under `C[C@H]1COCCN1c1cc(C2(S(=O)(=O)C3CC3)CC2)nc(-c2cnc(NC(=O)Nc3cnn(C)c3)nc2)n1` [Example 14z, 1-[5-[4-(1-cyclopropylsulfonylcyclopropyl)-6-[(3S)-3-methylmorpholin-4-yl]pyrimidin-2-yl]pyrimidin-2-yl]-3-(1-methylpyrazol-4-yl)urea] stands 171 nM; under `C[C@H]1COCCN1c1cc(C2(S(=O)(=O)CCO)CC2)nc(-c2ccc(NC(=O)NC3CC3)cc2)n1` [Example 15, 3-Cyclopropyl-1-[4-[4-[1-(2-hydroxyethylsulfonyl)cyclopropyl]-6-[(3S)-3-methylmorpholin-4-yl]pyrimidin-2-yl]phenyl]urea], 1.54 nM; under `CCNC(=O)Nc1ccc(-c2nc(N3CCOC[C@@H]3C)cc(C3(S(=O)(=O)CCO)CC3)n2)cc1` [Example 15a, 3-ethyl-1-[4-[4-[1-(2-hydroxyethylsulfonyl)cyclopropyl]-6-[(3S)-3-methylmorpholin-4-yl]pyrimidin-2-yl]phenyl]urea], 0.591 nM.
Consider `CNC(=O)Nc1ccc(-c2nc(N3CCOC[C@@H]3C)cc(C3(S(=O)(=O)CCO)CC3)n2)cc1` [Example 16, 1-[4-[4-[1-(2-Hydroxyethylsulfonyl)cyclopropyl]-6-[(3S)-3-methylmorpholin-4-yl]pyrimidin-2-yl]phenyl]-3-methylurea], for which the concentration for half-maximal inhibition (IC50) was found to be 1.42 nM.
As to `C[C@H]1COCCN1c1cc(C2(S(=O)(=O)CCO)CC2)nc(-c2ccc(NC(=O)NC3CCC3)cc2)n1` [Example 16a, 3-cyclobutyl-1-[4-[4-[1-(2-hydroxyethylsulfonyl)cyclopropyl]-6-[(3S)-3-methylmorpholin-4-yl]pyrimidin-2-yl]phenyl]urea], the IC50 is 10.1 nM.
Under `C[C@H]1COCCN1c1cc(C2(S(=O)(=O)CCO)CC2)nc(-c2ccc(NC(=O)NCCO)cc2)n1` [Example 16b, 3-(2-hydroxyethyl)-1-[4-[4-[1-(2-hydroxyethylsulfonyl)cyclopropyl]-6-[(3S)-3-methylmorpholin-4-yl]pyrimidin-2-yl]phenyl]urea] stands 5.77 nM; under `C[C@H]1COCCN1c1cc(C2(S(=O)(=O)CCO)CC2)nc(-c2ccc(NC(=O)Nc3ncns3)cc2)n1` [Example 16c, 1-[4-[4-[1-(2-hydroxyethylsulfonyl)cyclopropyl]-6-[(3S)-3-methylmorpholin-4-yl]pyrimidin-2-yl]phenyl]-3-(1,2,4-thiadiazol-5-yl)urea], 1.6 nM.
In the case of `C[C@H]1COCCN1c1cc(C2(S(=O)(=O)CCO)CC2)nc(-c2ccc(NC(=O)Nc3cnn(C)c3)cc2)n1` [Example 16d, 1-[4-[4-[1-(2-hydroxyethylsulfonyl)cyclopropyl]-6-[(3S)-3-methylmorpholin-4-yl]pyrimidin-2-yl]phenyl]-3-(1-methylpyrazol-4-yl)urea], the IC50 came out at 3.64 nM.
As to `CCCNC(=O)Nc1ccc(-c2nc(N3CCOC[C@@H]3C)cc(C3(S(=O)(=O)CCO)CC3)n2)cc1` [Example 16e, 3-[4-[4-[1-(2-hydroxyethylsulfonyl)cyclopropyl]-6-[(3S)-3-methylmorpholin-4-yl]pyrimidin-2-yl]phenyl]-1-propylurea], the 50% inhibitory concentration (IC50) was found to be 21.4 nM.
In the case of `C[C@H]1COCCN1c1cc(C2(S(=O)(=O)CCO)CC2)nc(-c2ccc(NC(=O)NCCCO)cc2)n1` [Example 16f, 1-[4-[4-[1-(2-hydroxyethylsulfonyl)cyclopropyl]-6-[(3S)-3-methylmorpholin-4-yl]pyrimidin-2-yl]phenyl]-3-(3-hydroxypropyl)urea], the 50% inhibitory concentration (IC50) worked out at 21.2 nM.
As to `C[C@H]1COCCN1c1cc(C2(S(=O)(=O)CCO)CC2)nc(-c2ccc(NC(=O)NCCC#N)cc2)n1` [Example 16g, 3-(2-cyanoethyl)-1-[4-[4-[1-(2-hydroxyethylsulfonyl)cyclopropyl]-6-[(3S)-3-methylmorpholin-4-yl]pyrimidin-2-yl]phenyl]urea], the 50% inhibitory concentration (IC50) turned out to be 17.6 nM.
On to `C[C@H]1COCCN1c1cc(C2(S(=O)(=O)CCO)CC2)nc(-c2ccc(NC(=O)NCc3ncc[nH]3)cc2)n1` [Example 16h, 1-[4-[4-[1-(2-hydroxyethylsulfonyl)cyclopropyl]-6-[(3S)-3-methylmorpholin-4-yl]pyrimidin-2-yl]phenyl]-3-(1H-imidazol-2-ylmethyl)urea], for which the IC50 stood at 186 nM.
In the case of `C[C@H]1COCCN1c1cc(C2(S(=O)(=O)CCO)CC2)nc(-c2ccc(NC(=O)NC3(CO)CC3)cc2)n1` [Example 16i, 1-[4-[4-[1-(2-hydroxyethylsulfonyl)cyclopropyl]-6-[(3S)-3-methylmorpholin-4-yl]pyrimidin-2-yl]phenyl]-3-[1-(hydroxymethyl)cyclopropyl]urea], the half-inhibitory concentration (IC50) was found to be 845 nM.
Take `C[C@H]1COCCN1c1cc(C2(S(=O)(=O)c3cncc(F)c3)CC2)nc(-c2ccc(NC(=O)NCCO)cc2)n1` [Example 17, 1-[4-[4-[1-(5-Fluoropyridin-3-yl)sulfonylcyclopropyl]-6-[(3S)-3-methylmorpholin-4-yl]pyrimidin-2-yl]phenyl]-3-(2-hydroxyethyl)urea]: the 50% inhibitory concentration (IC50) turned out to be 1.16 nM.
